Results published in the supplement of paper PMC13380429.
± gives the standard deviation of the averaged measurements.

Key:
Conditions in all cases: 72 h
U2OS [1] = assay: relative viability EC50 (midpoint between 100% and the lowest measured viability); higher = less toxic
Vero E6 [2] = assay: as above
Caco-2 [3] = assay: as above
HepG2 [4] = assay: as above
Calu-3 [5] = assay: as above
U2OS [6] = assay: cell viability relative to DMSO; higher = less toxic
Vero E6 [7] = assay: as above
Caco-2 [8] = assay: as above
HepG2 [9] = assay: as above
Calu-3 [10] = assay: as above
U2OS [11] = assay: drug sensitivity score (DSS) for viability; higher = more toxic; extreme values may be limits of the assay
Vero E6 [12] = assay: as above
Caco-2 [13] = assay: as above
HepG2 [14] = assay: as above
Calu-3 [15] = assay: as above

SMILES	relative viability EC50 (U2OS [1]) [µM]	relative viability EC50 (Vero E6 [2]) [µM]	relative viability EC50 (Caco-2 [3]) [µM]	relative viability EC50 (HepG2 [4]) [µM]	relative viability EC50 (Calu-3 [5]) [µM]	cell viability (U2OS [6]; 1 nM) [%]	cell viability (U2OS [6]; 10 nM) [%]	cell viability (U2OS [6]; 100 nM) [%]	cell viability (U2OS [6]; 1000 nM) [%]	cell viability (U2OS [6]; 10000 nM) [%]	cell viability (Vero E6 [7]; 1 nM) [%]	cell viability (Vero E6 [7]; 10 nM) [%]	cell viability (Vero E6 [7]; 100 nM) [%]	cell viability (Vero E6 [7]; 1000 nM) [%]	cell viability (Vero E6 [7]; 10000 nM) [%]	cell viability (Caco-2 [8]; 1 nM) [%]	cell viability (Caco-2 [8]; 10 nM) [%]	cell viability (Caco-2 [8]; 100 nM) [%]	cell viability (Caco-2 [8]; 1000 nM) [%]	cell viability (Caco-2 [8]; 10000 nM) [%]	cell viability (HepG2 [9]; 1 nM) [%]	cell viability (HepG2 [9]; 10 nM) [%]	cell viability (HepG2 [9]; 100 nM) [%]	cell viability (HepG2 [9]; 1000 nM) [%]	cell viability (HepG2 [9]; 10000 nM) [%]	cell viability (Calu-3 [10]; 1 nM) [%]	cell viability (Calu-3 [10]; 10 nM) [%]	cell viability (Calu-3 [10]; 100 nM) [%]	cell viability (Calu-3 [10]; 1000 nM) [%]	cell viability (Calu-3 [10]; 10000 nM) [%]	drug sensitivity score (U2OS [11])	drug sensitivity score (Vero E6 [12])	drug sensitivity score (Caco-2 [13])	drug sensitivity score (HepG2 [14])	drug sensitivity score (Calu-3 [15])
C[C@@H](O[C@H]1OCCN(Cc2nn(P(=O)(O)O)c(=O)[nH]2)[C@H]1c1ccc(F)cc1)c1cc(C(F)(F)F)cc(C(F)(F)F)c1 [fosaprepitant-dimeglumine]	> 10	> 10	> 10	> 10	> 10	98.6	103	95.4	96.1	86.4	92.5	97.3	97.9	99.6	99.7	98.4	95.1	93.2	102	90.8	93.6	93.4	88.7	91.9	89.6	99.7	93.8	102	93.8	108	0.1	0	0	0.1	0
CC(=O)N[C@@H](CCC(N)=O)C(=O)O [aceglutamide]	> 10	> 10	> 10	> 10	> 10	106	103	99.2	98.8	98.5	98.3	104	99.8	99.9	83.7	95.5	103	84.5	82.4	83	90.7	89.7	104	92.5	86.4	101	89.8	101	110	103	0	0.3	3.5	0	0
Oc1noc2c1CCNC2 [gaboxadol]	> 10	> 10	> 10	> 10	> 10	102	100	94.3	98.3	94.2	96.6	95.8	96.2	94.6	106	92.6	99	91.6	104	95.3	105	101	88.2	101	98.1	99.7	91.4	103	103	99.4	0	0	0	0	0
C[C@H](Nc1ncnc2[nH]cnc12)c1cc2ccc(F)cc2nc1-c1ccccn1 [AMG319]	> 10	> 10	> 10	> 10	> 10	99	101	98.3	102	101	98.8 ± 3.9	97.8 ± 0.85	98.5 ± 1.2	92.2 ± 2.3	83.7 ± 4.1	100 ± 4.2	104 ± 6.4	98.5 ± 1.3	93.4 ± 5.8	95 ± 13	103 ± 2.3	96.5 ± 11	115 ± 5	97.8 ± 6.2	99.3 ± 5.4	103 ± 0.64	97.2 ± 1.3	108 ± 8.1	100 ± 13	96.5 ± 2.5	0	0.75 ± 0.35	0.2 ± 0.28	0	0
CCO[C@H]1O[C@@H]2O[C@@]3(C)CC[C@H]4[C@H](C)CC[C@@H]([C@H]1C)[C@@]24OO3 [artemotil]	> 10	> 10	> 10	> 10	> 10	98.1	100	95.4	97.2	79.1	89.7	95.1	95.8	91.5	98	92.1	101	86.6	94.5	91.5	107	100	104	89.1	94.5	94.2	109	95.4	109	104	1	0	0	0.2	0
C[C@H](N)Cc1cccc(O)c1 [gepefrine]	> 10	> 10	> 10	> 10	> 10	88	93.9	90.3	95	103	99.7	96	98.1	101	111	91.3	104	88	99.1	111	103	97.2	96.8	104	109	93.4	100	102	99.7	88.7	0	0	0	0	0
Cc1cc(O)cc(C)c1Cl [chloroxylenol]	> 10	> 10	> 10	> 10	> 10	102	106	97.3	99.8	95.4	101	101	96.9	99.1	104	99.8	101	93.2	92	89.3	90.6	92	105	104	94	104	108	94.7	105	95.5	0	0	0.3	0	0
COC(c1ccccc1)(c1ccccc1)[C@H](Oc1nc(C)cc(C)n1)C(=O)O [ambrisentan]	> 10	> 10	> 10	> 10	> 10	101	101	94.2	99.5	95.7	99.9	99.1	94.4	97.4	102	104	98.2	95.1	97.1	90.5	102	98.4	95.3	107	98.3	105	101	84.6	88.9	97	0	0	0	0	2.7
NC(=O)N/N=C/c1ccc(Oc2ccc(F)cc2)cc1	> 10	> 10	> 10	> 10	> 10	95.9	94.5	98.9	97.6	99.4	105	101	104	100	86.6	99.6	98.4	104	96.8	97.9	95.8	106	92.4	89.7	96	99.9	101	80.1	92.8	109	0	0.1	0	0.1	0
O=c1c(O)c(-c2ccc(O)c(O)c2)oc2cc(O)cc(O)c12 [quercetin]	> 10	> 10	> 10	> 10	> 10	99.1	97	98	97	96.1	99.3	99	95.9	101	99.3	104	93.6	100	87.6	79.5	94.1	95.8	99.2	99.1	84	98.8	100	92.4	92.8	80.5	0	0	1.9	0.4	0.8
CC(=O)N[C@@H](Cc1c[nH]c2ccccc12)C(=O)OCc1cc(C(F)(F)F)cc(C(F)(F)F)c1 [L-732,138]	> 10	> 10	> 10	> 10	> 10	96.7	94.7	97.4	94.4	99.2	89.1	97.3	86.3	95.3	109	91.7	92.8	96.4	97.5	92.8	91.1	106	105	104	105	95.4	102	92.6	103	102	0	0	0	0	0
OC[C@H]1O[C@H](O[C@H]2O[C@H](CO)[C@@H](O)[C@H](O)[C@H]2O)[C@H](O)[C@@H](O)[C@@H]1O [cabaletta]	> 10	> 10	> 10	> 10	> 10	99.1	103	104	107	106	110	94.3	104	105	99.5	112	112	83.7	97.7	94.5	130	110	115	110	98.2	96.2	105	97.2	109	96.3	0	0	0	0	0
Cc1nnc(C(=O)NC(C)(C)c2nc(C(=O)NCc3ccc(F)cc3)c(O)c(=O)n2C)o1 [raltegravir]	> 10	> 10	> 10	> 10	> 10	104	95.9	100	97.5	100	101	99.3	95.7	97.5	94.4	102	104	94.4	94.7	99.7	100	102	97.6	118	90.3	104	99.3	99	107	104	0	0	0	0	0
CCOCC(O)COc1ccc(NC(=O)CC[S+](C)C)cc1 (stereo not given) [suplatast]	> 10	> 10	> 10	> 10	> 10	99.1	96.4	100	100	101	87.8	98.2	93.3	94.8	104	95.9	99	99.1	98.5	104	93.8	94.3	85	91.2	94.1	94.8	93.1	93.4	102	101	0	0	0	0	0
